Measurements published in US10723741B1, “DNA polymerase IIIC inhibitors and use thereof” (Acurx Pharmaceuticals, LLC, priority 2018, dated 2020).
In brackets after ≈: the same amount, converted by molar mass. Like-named read-outs stand apart in the source and are kept apart here.

Assays:
Assay type in all cases: cell-based
[1] = tested on: Staphylococcus aureus NRS384 (MRSA); experiment: Broth microdilution MIC, S. aureus NRS384 (MRSA); set-up: MIC NRS 384 (MRSA): unit not given here; settings: broth microdilution, 37° C., 20 hours; for MIC: Staphylococcus aureus
Method in brief: (§1)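 Broth microdilution in strain-specific test medium with ~5.0×10^5 cfu/ml inoculum, 1% DMSO and two-fold compound dilutions from 64 to 0.0625 μg/ml. Plates were held 20 hours at 37° C in ambient air. S. pneumoniae colonies were grown beforehand on blood agar in 5% CO2.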

[2] = tested on: Staphylococcus aureus ATCC 29213 (MSSA); experiment: Broth microdilution MIC, S. aureus ATCC 29213 (MSSA); settings: broth microdilution, 37° C., 20 hours, read-out: MIC S. aureus ATCC 29213 (MSSA)
Method in brief: as §1

[3] = tested on: Enterococcus faecalis ATCC 29212; experiment: Broth microdilution MIC, E. faecalis ATCC 29212; settings: ATCC29212, broth microdilution, 37° C., 20 hours, read-out: MIC E. faecalis ATCC 29212
Method in brief: as §1

[4] = tested on: Enterococcus faecium ATCC 700221 (VRE); experiment: Broth microdilution MIC, E. faecium ATCC 700221 (VRE); set-up: MIC E. faecium ATCC 700221 (VRE): unit: ug/mL; settings: broth microdilution, 37° C., 20 hours; for MIC: Enterococcus faecium
Method in brief: as §1

[5] = tested on: Streptococcus pneumoniae ATCC 49619; experiment: Broth microdilution MIC, S. pneumoniae ATCC 49619; settings: ATCC49619, broth microdilution, 37° C., 20 hours, read-out: MIC S. pneumoniae ATCC 49619
Method in brief: as §1

[6] = tested on: Bacillus subtilis ATCC 6633; experiment: Broth microdilution MIC, B. subtilis ATCC 6633; settings: ATCC6633, broth microdilution, 37° C., 20 hours, read-out: MIC B. subtilis ATCC 6633
Method in brief: as §1

[7] = tested on: Escherichia coli ATCC 25922; experiment: Broth microdilution MIC, E. coli ATCC 25922 (MHIIB w & w/o 4 mM EDTA); settings: broth microdilution, 37° C., 20 hours; for MIC: Escherichia coli, ATCC25922, without EDTA, read-out: MIC E. coli ATCC 25922; for MIC E. coli ATCC 25922 + 4 mM EDTA: with 4 mM EDTA
Method in brief: as §1

[8] = read-out: MIC E. faecium ATCC 700221 (VRE)

Row | Structure (SMILES) | MIC ([1]; read-out: MIC NRS 384 (MRSA)) | MIC [2] | MIC [3] | MIC [4, 8] | MIC [5] | MIC [6] | MIC [7] | MIC E. coli ATCC 25922 + 4 mM EDTA [7] | MIC NRS 384 (MRSA) [1] | MIC E. faecium ATCC 700221 (VRE) [4] | MIC ([1]; S. aureus NRS 384, read-out: MIC NRS 384 (MRSA)) | MIC ([1]; MHIIB, read-out: MIC against S. aureus NRS 384 (MRSA)) | MIC ([4]; MHIIB, read-out: MIC against E. faecium ATCC 700221 (VRE)) | MIC NRS 384 (MRSA) ([1]; S. aureus NRS 384)
1 | O=c1[nH]c(NCc2ccc(Cl)c(Cl)c2)nc2cnn(Cc3nccs3)c12 [Compound 91, 5-((3,4-Dichlorobenzyl)amino)-1-(thiazol-2-ylmethyl)-1H-pyrazolo[4,3-d]pyrimidin-7(6H)-one] | 2 µg/mL (≈ 4.91 µM) | 4 µg/mL (≈ 9.82 µM) | 4 µg/mL (≈ 9.82 µM) | 2 µg/mL (≈ 4.91 µM) | 4 µg/mL (≈ 9.82 µM) | 1 µg/mL (≈ 2.46 µM) | > 64 µg/mL | 32 µg/mL | – | – | – | – | – | –
2 | Cl.O=c1[nH]c(NCc2ccc(Cl)c(Cl)c2)nc2cnn(CCOc3cccnc3)c12 [Compound 170, 5-((3,4-dichlorobenzyl)amino)-1-(2-(pyridin-3-yloxy)ethyl)-1H-pyrazolo[4,3-d]pyrimidin-7(6H)-one hydrochloride] | – | 4 µg/mL | 4 µg/mL | – | 8 µg/mL | 1 µg/mL | > 64 µg/mL | >64. ug/ml | 2/2 | 4/1 | – | – | – | –
3 | COCCn1cc2nc(NCc3ccc(Cl)c(Cl)c3)[nH]c(=O)c2n1 [Compound 128, 5-((3,4-Dichlorobenzyl)amino)-2-(2-methoxyethyl)-2H-pyrazolo[4,3-d]pyrimidin-7(6H)-one] | 32 µg/mL (≈ 86.9 µM) | 32 µg/mL (≈ 86.9 µM) | 32 µg/mL (≈ 86.9 µM) | 32 µg/mL (≈ 86.9 µM) | 16 µg/mL (≈ 43.5 µM) | 16 µg/mL (≈ 43.5 µM) | > 64 µg/mL | >64 µg/mL | – | – | – | – | – | –
4 | O=c1[nH]c(NCc2ccc(Cl)c(Cl)c2)nc2c(-c3ncco3)nn(CCOCCO)c12 [Compound 50, 5-((3,4-dichlorobenzyl)amino)-1-(2-(2-hydroxyethoxy)ethyl)-3-(oxazol-2-yl)-1H-pyrazolo[4,3-d]pyrimidin-7(6H)-one] | > 64 µg/mL | > 64 µg/mL | > 64 µg/mL | > 64 µg/mL | > 64 µg/mL | > 64 µg/mL | > 64 µg/mL | >64 µg/mL | – | – | – | – | – | –
5 | COCC(COC)n1ncc2nc(NCc3ccc(Cl)c(Cl)c3)[nH]c(=O)c21 [Compound 106, 5-((3,4-Dichlorobenzyl)amino)-1-(1,3-dimethoxypropan-2-yl)-1H-pyrazolo[4,3-d]pyrimidin-7(6H)-one] | 32 µg/mL (≈ 77.6 µM) | 64 µg/mL (≈ 155 µM) | > 64 µg/mL | 32 µg/mL (≈ 77.6 µM) | 32 µg/mL (≈ 77.6 µM) | 32 µg/mL (≈ 77.6 µM) | > 64 µg/mL | >64 µg/mL | – | – | – | – | – | –
6 | COCCn1nc(F)c2nc(NCc3ccc(Cl)c(Cl)c3)[nH]c(=O)c21 [Compound 305, 5-((3,4-Dichlorobenzyl)amino)-3-fluoro-1-(2-methoxyethyl)-1H-pyrazolo[4,3-d]pyrimidin-7(6H)-one] | – | 1 µg/mL (≈ 2.59 µM) | 2 µg/mL (≈ 5.18 µM) | 1 µg/mL (≈ 2.59 µM) | 4 µg/mL (≈ 10.4 µM) | 0.5 µg/mL (≈ 1.29 µM) | > 64 µg/mL | >64 µg/mL | – | – | 1 µg/mL (≈ 2.59 µM) | ≤ 1 µg/mL | ≤ 1 µg/mL | –
7 | Cl.O=c1[nH]c(NCc2ccc(Cl)c(Cl)c2)nc2cnn(CC3CCCNC3)c12 (stereo not drawn) [Compound 154, 5-((3,4-dichlorobenzyl)amino)-1-(piperidin-3-ylmethyl)-1H-pyrazolo[4,3-d]pyrimidin-7(6H)-one hydrochloride] | 32 µg/mL | 32 µg/mL | 32 µg/mL | 32 µg/mL | 4 µg/mL | 8 µg/mL | > 64 µg/mL | 32 µg/mL | – | – | – | – | – | –
8 | CSCOCCOCCn1ncc2nc(NCc3ccc(Cl)c(Cl)c3)[nH]c(=O)c21 [Compound 300, 5-[(3,4-dichlorophenyl)methylamino]-1-[2-[2-(methylsulfanylmethoxy)ethoxy]ethyl]-6H-pyrazolo[4,3-d]pyrimidin-7-one] | – | 4 µg/mL (≈ 8.73 µM) | 8 µg/mL (≈ 17.5 µM) | – | 4 µg/mL (≈ 8.73 µM) | 1 µg/mL (≈ 2.18 µM) | > 64 µg/mL | >64 µg/mL | – | 2/4 | – | – | – | 4/4
9 | O=c1[nH]c(NCc2ccc(Cl)c(Cl)c2)nc2cnn(CC3COC3)c12 [Compound 118, 5-((3,4-Dichlorobenzyl)amino)-1-(oxetan-3-ylmethyl)-1H-pyrazolo[4,3-d]pyrimidin-7(6H)-one] | 2 µg/mL (≈ 5.26 µM) | 2 µg/mL (≈ 5.26 µM) | 2 µg/mL (≈ 5.26 µM) | 1 µg/mL (≈ 2.63 µM) | 2 µg/mL (≈ 5.26 µM) | 0.5 µg/mL (≈ 1.31 µM) | > 64 µg/mL | >64 µg/mL | – | – | – | – | – | –
10 | Cl.N=C(N)NCCn1ncc2nc(NCc3ccc(Cl)c(Cl)c3)[nH]c(=O)c21 [Compound 292, 1-(2-(5-((3,4-dichlorobenzyl)amino)-7-oxo-6,7-dihydro-1H-pyrazolo[4,3-d]pyrimidin-1-yl)ethyl)guanidine hydrochloride] | 16 µg/mL | 16 µg/mL | 64 µg/mL | 64 µg/mL | 64 µg/mL | 16 µg/mL | > 64 µg/mL | >64 µg/mL | – | – | – | – | – | –
11 | CC(C)(C)OC(=O)N1CCN(CCOCCn2ncc3nc(NCc4ccc(Cl)c(Cl)c4)[nH]c(=O)c32)CC1 [Compound 166, tert-butyl 4-[2-[2-[5-[(3,4-dichlorophenyl)methylamino]-7-oxo-6H-pyrazolo[4,3-d]pyrimidin-1-yl]ethoxy]ethyl]piperazine-1-carboxylate] | > 64 µg/mL | > 64 µg/mL | > 64 µg/mL | 8 µg/mL (≈ 14.1 µM) | 16 µg/mL (≈ 28.2 µM) | 4 µg/mL (≈ 7.06 µM) | > 64 µg/mL | >64 µg/mL | – | – | – | – | – | –
12 | Cn1ncc2nc(NCc3ccc(F)c(Cl)c3)[nH]c(=O)c21 [Compound 24, 5-((3-Chloro-4-fluorobenzyl)amino)-1-methyl-1H-pyrazolo[4,3-d]pyrimidin-7(6H)-one] | 8 µg/mL (≈ 26 µM) | 8 µg/mL (≈ 26 µM) | > 64 µg/mL | 8 µg/mL (≈ 26 µM) | 4 µg/mL (≈ 13 µM) | 8 µg/mL (≈ 26 µM) | > 64 µg/mL | >64 µg/mL | – | – | – | – | – | –
13 | O=c1[nH]c(NCc2ccc(Cl)c(Cl)c2)nc2cnn(C3CCOCC3)c12 [Compound 121, 5-((3,4-Dichlorobenzyl)amino)-1-(tetrahydro-2H-pyran-4-yl)-1H-pyrazolo[4,3-d]pyrimidin-7(6H)-one] | 2 µg/mL (≈ 5.07 µM) | 4 µg/mL (≈ 10.1 µM) | 4 µg/mL (≈ 10.1 µM) | 2 µg/mL (≈ 5.07 µM) | 4 µg/mL (≈ 10.1 µM) | 0.5 µg/mL (≈ 1.27 µM) | > 64 µg/mL | >64 µg/mL | – | – | – | – | – | –
14 | O=c1[nH]c(NCc2ccc(Cl)c(Cl)c2)nc2cnn(CC3CCO3)c12 (stereo not drawn) [Compound 122, 5-((3,4-Dichlorobenzyl)amino)-1-(oxetan-2-ylmethyl)-1H-pyrazolo[4,3-d]pyrimidin-7(6H)-one] | 2 µg/mL (≈ 5.26 µM) | 2 µg/mL (≈ 5.26 µM) | 4 µg/mL (≈ 10.5 µM) | 2 µg/mL (≈ 5.26 µM) | 4 µg/mL (≈ 10.5 µM) | 1 µg/mL (≈ 2.63 µM) | > 64 µg/mL | >64 µg/mL | – | – | – | – | – | –
